Measured values as given in US20250179193A1, “TREATMENT WITH AN ANTIBODY THAT BINDS EGFR AND CMET” (MERUS N.V., priority 2022, published 2025).

Tests used:
[1] = system: NSCLC CDX model HCC827-ER1 (EGFR exon 19 deletion E746-A750); settings: mouse, in vivo
Procedure: Body weights were measured twice per week after randomization.

[2] = system: cMET than EGFR; settings: Moores et al. (2016); cited from earlier work

Row | Molecule | absolute body weight [1] | affinity imbalance, greater affinity for cMET than EGFR [2]
1 | C=CC(=O)Nc1cc(Nc2nccc(-c3cn(C)c4ccccc34)n2)c(OC)cc1N(C)CCN(C)C [Osimertinib] | lower compared to Groups 1 and 2 | 
2 | JNJ-61186372: bispecific cMET×EGFR antibody produced by controlled Fab-arm exchange (Moores et al 2016) |  | approximately 40 ×
